# Assays:
# AML12 cells [1] = assay: NAD+/NADH ratio in AML12 cells; details: 1 mM, 6 h, vs control
# AML12 cells [2] = assay: Rescue from hydrogen peroxide (HP) genotoxicity: cell survival and NAD+ level; format: cell-based; details: 500 μM HP + 250 μM compound, 3 h, AML12 cells
# Experimental: Because the increasing extent of NAD+ concentration is of interest, whether NADH can improve the cell survival rate under the stressful conditions of depletion of NAD+ was also assessed. To that end, as genotoxicity can lead to DNA damage, activate poly(ADP-ribose) polymerases and induce NAD+ depletion, genotoxicity was tested. Strong genotoxicity will lead to severe consumption of NAD+ by cells, resulting in cell death. To test genotoxicity, AML12 cells were treated with 500 μM hydrogen peroxide (HP) for 3 hours in the presence or absence of 1 mM NADH, and then the cells were counted and NAD+ was detected in the samples co-treated with NADH (1 mM) or its vehicle. FIG. 4A is a graph comparing the cell survival rate of the HP treated cells, NADH treated cells, and the HP+NADH treated cells relative to a control. And FIG. 4B is a graph comparing the NAD+ level of the HP treated cells, NADH treated cells, and the HP+NADH treated cells relative to a control. The cell survival rates and cellular NAD+ levels in FIGS. 4A-B are expressed as mean±SD.
# The effects of NADH and NMN at a lower concentration (250 μM) on AML12 cells was also tested in a separate assay. Specifically, AML12 cells were treated with 500 μM HP in the presence or absence of 250 μm NADH or NMN for 3 h. FIG. 4C is a graph comparing the cell survival rate of the HP treated cells, HP+NADH treated cells, and the HP+NMN treated cells relative to a control. And FIG. 4D is a graph comparing the NAD+ level of the HP treated cells, HP+NADH treated cells, and the HP+NMN treated cells relative to a control. The cell survival rate and cellular NAD+ levels in FIGS. 4C-D are expressed as mean±SD.
# male C57BL/6J mice = assay: Tissue NAD+ content after intraperitoneal injection; format: in vivo; details: 250 mg/kg intraperitoneal, 4 hours
# Experimental: In the below in vivo assays, C57BL/6J male mice (The Jackson Laboratory) (40 days of age) were used. They were kept under standard laboratory conditions with a temperature of 22±1° C., dark/light cycles of 12/12 h, and relative humidity of 55±5%. All animals had free access to food and water, except for indicated fasting periods (and where not indicated for fasting periods of 2 hours before administration).
# […] Specifically, ten 8-week-old male C57BL/6J mice (The Jackson Laboratory) were kept in polycarbonate cages under a 12-h light/dark cycle with free access to food and water. […] Four hours later, the blood samples were collected by cardiac puncture and the mice were executed. Liver, brain, muscle, and adipose tissues were collected, instantly frozen in liquid nitrogen, and then stored at −80° C. until performance of the NAD+ analyses. […] Four hours later, the mice were killed and tissue samples were collected. All animal studies were performed according to the Guidelines for the Care and Use of Experimental Animals. For this NAD+ assay, about 100 mg of frozen tissue was crushed in liquid nitrogen and ultrasonically homogenized in 7% perchloric acid, and then the solution was neutralized and subjected to the NAD+ determination described here.
# Data are indicated as mean±SD.
smiles,measurement,setting,value
"NC(=O)c1ccc[n+]([C@@H]2O[C@H](COP(=O)([O-])O)[C@@H](O)[C@H]2O)c1 [NMN, nicotinamide mononucleotide, reference compound]",NAD+/NADH ratio,AML12 cells [1],significantly increase
same,effect on NAD+ levels under HP,AML12 cells [2],much worse than that of NADH
same,effect on cell survival under HP,AML12 cells [2],much worse than that of NADH
same,increase of the concentration of NAD+ in the liver,male C57BL/6J mice,170%

# From patent publication US11376271B1, “Methods of ameliorating the effects of alcoholic liver damage” (FULGENT LIFE INC., priority 2021, dated 2022)
